Values quoted from earlier work in US5900414A, “Methods for administering integrin receptor antagonists” (Merck & Co., Inc., priority 1997, dated 1999).
Values belong to the compound of their own block, whether it stands above or below them. Positions of bridges follow the written chain, without caps; N, C: chain ends. Non-standard residues stand in square brackets, D forms with d. Residues, ends and D or L forms follow the SMILES beside them. hArg = N=C(N)NCCCC[C@H](N)C(=O)O; Mpa = O=C(O)CCS

How the values were obtained:
[1] = prodrug

SMILES: CCCCS(=O)(=O)N[C@@H](Cc1ccc(OCCCCC2CCNCC2)cc1)C(=O)O [MK-383]
selectivity for GPIIb/IIIa (GPIIb/IIIa): selective for GPIIb/IIIa

SMILES: N=C(N)NCCCC[C@@H]1NC(=O)CCSSC[C@@H](C(N)=O)NC(=O)[C@@H]2CCCN2C(=O)[C@H](Cc2c[nH]c3ccccc23)NC(=O)[C@H](CC(=O)O)NC(=O)CNC1=O [Integrilin] ([Mpa][hArg]GDWPC-NH2; disulfide 1-7)
effect on ligand binding to αv β3 (αv β3): very little effect
ligand binding to GPIIa/IIIa (GPIIa/IIIa): inhibits ligand binding

SMILES: N=C(N)c1ccc(C(=O)N[C@@H](Cc2ccc(O)cc2)C(=O)N2CCC(OCC(=O)O)CC2)cc1 [Ro 44-9883]
selectivity for GPIIb/IIIa (GPIIb/IIIa): selective for GPIIb/IIIa

oral bioavailability [1]: high oral bioavailability
SMILES: C#C[C@H](CC(=O)OCC)NC(=O)CCC(=O)Nc1ccc(C(=N)N)cc1 [SC54684]
